Patent US20090270350A1, “Pyridinone Pyrazole Urea and Pyrimidinone Pyrazole Urea Derivatives” (PFIZER INC., priority 2006, published 2009)

System: not given
Test: not given
Conditions: not given

Compared with `COC(=O)c1ccc(C)c(-n2c(C)cc(OCc3ccccc3CNC(=O)Nc3cc(C(C)(C)C)nn3-c3cccc(OCCO)c3)c(Cl)c2=O)c1` [Example 130, 3-{4-[2-(3-{5-tert-Butyl-2-[3-(2-hydroxy-ethoxy)-phenyl]-2H-pyrazol-3-yl}-ureidomethyl)-benzyloxy]-3-chloro-6-methyl-2-oxo-2H-pyridin-1-yl}-4-methyl-benzoic acid methyl ester], `CNC(=O)c1ccc(C)c(-n2c(C)cc(OCc3ccccc3CNC(=O)Nc3cc(C(C)(C)C)nn3-c3cccc(OCCO)c3)c(Cl)c2=O)c1` [Example 133, 3-{4-[2-(3-{5-tert-butyl-2-[3-(2-hydroxy-ethoxy)-phenyl]-2H-pyrazol-3-yl}-ureidomethyl)-benzyloxy]-3-chloro-6-methyl-2-oxo-2H-pyridin-1-yl}-4,N-dimethyl-benzamide] is higher in melting point: 147 to 148 °C for the first, 168 to 170 °C for the second.

First: Cc1ccc(C(=O)NCCO)cc1-n1c(C)cc(OCc2ccccc2CNC(=O)Nc2cc(C(C)(C)C)nn2-c2cccc(OCCO)c2)c(Cl)c1=O [Example 132, 3-{4-[2-(3-{5-tert-Butyl-2-[3-(2-hydroxy-ethoxy)-phenyl]-2H-pyrazol-3-yl}-ureidomethyl)-benzyloxy]-3-chloro-6-methyl-2-oxo-2H-pyridin-1-yl}-N-(2-hydroxy-ethyl)-4-methyl-benzamide]
Second: Cc1ccc(C(=O)NCC(O)CO)cc1-n1c(C)cc(OCc2ccccc2CNC(=O)Nc2cc(C(C)(C)C)nn2-c2cccc(OCCO)c2)c(Cl)c1=O (stereo not shown) [Example 134, 3-{4-[2-(3-{5-tert-Butyl-2-[3-(2-hydroxy-ethoxy)-phenyl]-2H-pyrazol-3-yl}-ureidomethyl)-benzyloxy]-3-chloro-6-methyl-2-oxo-2H-pyridin-1-yl}-N-(2,3-dihydroxy-propyl)-4-methyl-benzamide]
The melting point of the first is higher: 162 to 163 °C for the first, 158 to 160 °C for the second.

First: COC(=O)c1ccc(C)c(-n2c(C)cc(OCc3ccccc3CNC(=O)Nc3cc(C(C)(C)C)nn3-c3ccc(O)cc3)c(Cl)c2=O)c1 [Example 135, 3-[4-(2-{3-[5-tert-butyl-2-(4-hydroxy-phenyl)-2H-pyrazol-3-yl]-ureidomethyl}-benzyloxy)-3-chloro-6-methyl-2-oxo-2H-pyridin-1-yl]-4-methyl-benzoic acid methyl ester]
Second: COC(=O)c1ccc(C)c(-n2c(C)cc(OCc3ccc(F)cc3CNC(=O)Nc3cc(C(C)(C)C)nn3-c3ccc(O)cc3)c(Cl)c2=O)c1 [Example 136, 3-[4-(2-{3-[5-tert-butyl-2-(4-hydroxy-phenyl)-2H-pyrazol-3-yl]-ureidomethyl}-4-fluoro-benzyloxy)-3-chloro-6-methyl-2-oxo-2H-pyridin-1-yl]-4-methyl-benzoic acid methyl ester]
The melting point of the first is higher: 199 to 200 °C for the first, 188 to 190 °C for the second.

Compared with `COC(=O)c1ccc(C)c(-n2c(C)cc(OCc3ccccc3CNC(=O)Nc3cc(C(C)(C)C)nn3-c3ccc(O)c(Cl)c3)c(Cl)c2=O)c1` [Example 137, 3-[4-(2-{3-[5-tert-butyl-2-(3-chloro-4-hydroxy-phenyl)-2H-pyrazol-3-yl]-ureidomethyl}-benzyloxy)-3-chloro-6-methyl-2-oxo-2H-pyridin-1-yl]-4-methyl-benzoic acid methyl ester], `COC(=O)c1ccc(C)c(-n2c(C)cc(OCc3ccccc3CNC(=O)Nc3cc(C(C)(C)C)nn3-c3ccc(Cl)c(O)c3)c(Cl)c2=O)c1` [Example 138, 3-[4-(2-{3-[5-tert-butyl-2-(4-chloro-3-hydroxy-phenyl)-2H-pyrazol-3-yl]-ureidomethyl}-benzyloxy)-3-chloro-6-methyl-2-oxo-2H-pyridin-1-yl]-4-methyl-benzoic acid methyl ester] is higher in melting point: 185 to 186 °C for the first, 193 to 195 °C for the second.

First: COC(=O)c1ccc(C)c(-n2c(C)cc(OCc3ccc(F)cc3CNC(=O)Nc3cc(C(C)(C)C)nn3-c3ccc(O)c(Cl)c3)c(Cl)c2=O)c1 [Example 140, 3-[4-(2-{3-[5-tert-butyl-2-(3-chloro-4-hydroxy-phenyl)-2H-pyrazol-3-yl]-ureidomethyl}-4-fluoro-benzyloxy)-3-chloro-6-methyl-2-oxo-2H-pyridin-1-yl]-4-methyl-benzoic acid methyl ester]
Second: CNC(=O)c1ccc(C)c(-n2c(C)cc(OCc3ccccc3CNC(=O)Nc3cc(C(C)(C)C)nn3-c3ccc(O)c(Cl)c3)c(Cl)c2=O)c1 [Example 153, 3-[4-(2-{3-[5-tert-butyl-2-(3-chloro-4-hydroxy-phenyl)-2H-pyrazol-3-yl]-ureidomethyl}-benzyloxy)-3-chloro-6-methyl-2-oxo-2H-pyridin-1-yl]-4,N-dimethyl-benzamide]
The melting point of the first is lower: 197 to 200 °C for the first, 201 to 203 °C for the second.

For `Cc1ccc(C(=O)NCCO)cc1-n1c(C)cc(OCc2ccccc2CNC(=O)Nc2cc(C(C)(C)C)nn2-c2ccc(O)c(Cl)c2)c(Cl)c1=O` [Example 154, 3-[4-(2-{3-[5-tert-butyl-2-(3-chloro-4-hydroxy-phenyl)-2H-pyrazol-3-yl]-ureidomethyl}-benzyloxy)-3-chloro-6-methyl-2-oxo-2H-pyridin-1-yl]-N-(2-hydroxy-ethyl)-4-methyl-benzamide], the melting point was 195 to 196 °C.

Target: p38α (Homo sapiens, UniProt Q16539)
Sequence (Q16539 whole entry): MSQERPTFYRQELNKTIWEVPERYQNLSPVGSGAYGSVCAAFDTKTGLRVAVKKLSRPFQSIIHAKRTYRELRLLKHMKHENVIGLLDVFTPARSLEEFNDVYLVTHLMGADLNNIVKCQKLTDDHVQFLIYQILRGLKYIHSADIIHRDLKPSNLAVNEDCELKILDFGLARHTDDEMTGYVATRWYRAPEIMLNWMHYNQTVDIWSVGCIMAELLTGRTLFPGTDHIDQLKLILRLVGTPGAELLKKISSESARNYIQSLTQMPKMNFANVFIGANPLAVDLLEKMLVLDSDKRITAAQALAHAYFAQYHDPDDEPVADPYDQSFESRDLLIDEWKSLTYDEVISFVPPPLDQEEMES
Test: p38α/MK2 cascade assay
Assay type: biochemical
Conditions: Table 2; same p38α/MK2 cascade assay; 40 minutes preincubation; read-out: p38a/MK2 Cascade 40 min Pre-Incuabtion (% Inhibition): IC50
In short: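 In a cascade format, p38α was preincubated 40 min with inhibitor (1000–0.05 nM) before adding 1 nM nonactive MK2 (54-400), 5 μM MgATP and 0.5 μM FITC-Hsp27 peptide. Reaction ran 60 min in HEPES pH 7.5 with MgCl2, DTT, 2% DMSO, then EDTA-quenched. Peptide phosphorylation was measured by Caliper mobility shift to give IC50.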

`CSc1ccccc1Cn1c(C)cc(OCc2ccccc2CNC(=O)Nc2cc(C(C)(C)C)nn2-c2cccc(OCCO)c2)c(Cl)c1=O` [Example 269, 1-{3-tert-butyl-1-[3-(2-hydroxyethoxy)phenyl]-1H-pyrazol-5-yl}-3-{2-[({3-chloro-6-methyl-1-[2-(methylthio)benzyl]-2-oxo-1,2-dihydropyridin-4-yl}oxy)methyl]benzyl}urea] and `CSc1ccccc1Cn1c(C)cc(OCc2ccccc2CNC(=O)Nc2cc(C(C)(C)C)nn2-c2cccc(O)c2)c(Cl)c1=O` [Example 271, 1-[3-tert-butyl-1-(3-hydroxyphenyl)-1H-pyrazol-5-yl]-3-{2-[({3-chloro-6-methyl-1-[2-(methylthio)benzyl]-2-oxo-1,2-dihydropyridin-4-yl}oxy)methyl]benzyl}urea] are within 1.5-fold of each other in IC50: 0.0204 µM for the first, 0.0141 µM for the second.

Compared with `CSc1ccccc1Cn1c(C)cc(OCc2ccccc2CNC(=O)Nc2cc(C(C)(C)C)nn2-c2ccc(O)c(Cl)c2)c(Cl)c1=O` [Example 270, 1-[3-tert-butyl-1-(3-chloro-4-hydroxyphenyl)-1H-pyrazol-5-yl]-3-{2-[({3-chloro-6-methyl-1-[2-(methylthio)benzyl]-2-oxo-1,2-dihydropyridin-4-yl}oxy)methyl]benzyl}urea], `CSc1ccccc1Cn1c(C)cc(OCc2ccccc2CNC(=O)Nc2cc(C(C)(C)C)nn2-c2ccc(Cl)c(O)c2)c(Cl)c1=O` [Example 273, 1-[3-tert-butyl-1-(4-chloro-3-hydroxyphenyl)-1H-pyrazol-5-yl]-3-{2-[({3-chloro-6-methyl-1-[2-(methylthio)benzyl]-2-oxo-1,2-dihydropyridin-4-yl}oxy)methyl]benzyl}urea] is 3.7-fold higher in IC50: 0.0327 µM for the first, 0.121 µM for the second.

Compared with `Cc1cc(OCc2ccccc2CNC(=O)Nc2cc(C(C)(C)C)nn2-c2ccc(Cl)c(O)c2)c(Cl)c(=O)n1Cc1ccc(CNC(=O)CN)cc1` [Example 272, N-[4-({4-[(2-{[({[3-tert-butyl-1-(4-chloro-3-hydroxyphenyl)-1H-pyrazol-5-yl]amino}carbonyl)amino]methyl}benzyl)oxy]-3-chloro-6-methyl-2-oxopyridin-1(2H)-yl}methyl)benzyl]-glycinamide], `Cc1cc(OCc2ccccc2CNC(=O)Nc2cc(C(C)(C)C)nn2-c2ccc(O)c(Cl)c2)c(Cl)c(=O)n1Cc1ccc(CNC(=O)CN)cc1` [Example 274, N-[4-({4-[(2-{[({[3-tert-butyl-1-(3-chloro-4-hydroxyphenyl)-1H-pyrazol-5-yl]amino}carbonyl)amino]methyl}benzyl)oxy]-3-chloro-6-methyl-2-oxopyridin-1(2H)-yl}methyl)benzyl]-glycinamide] is 1.5-fold higher in IC50: 0.0024 µM for the first, 0.0036 µM for the second. The first is the more potent here.

Going from `COc1ccccc1Cn1c(C)cc(OCc2ccccc2CNC(=O)Nc2cc(C(C)(C)C)nn2-c2ccc(Cl)c(O)c2)c(C)c1=O` [Example 275, 1-[3-tert-butyl-1-(4-chloro-3-hydroxyphenyl)-1H-pyrazol-5-yl]-3-[2-({[1-(2-methoxybenzyl)-3,6-dimethyl-2-oxo-1,2-dihydropyridin-4-yl]oxy}methyl)benzyl]urea] to `CSc1ccccc1Cn1c(C)cc(OCc2ccccc2CNC(=O)Nc2cc(C(C)(C)C)nn2-c2ccc(Cl)c(O)c2)c(C)c1=O` [Example 277, 1-[3-tert-butyl-1-(4-chloro-3-hydroxyphenyl)-1H-pyrazol-5-yl]-3-{2-[({3,6-dimethyl-1-[2-(methylthio)benzyl]-2-oxo-1,2-dihydropyridin-4-yl}oxy)methyl]benzyl}urea], the IC50 rises from 0.0537 µM to 0.131 µM (2.4-fold). The first is the more potent here.

Going from `COc1ccccc1Cn1c(C)cc(OCc2ccccc2CNC(=O)Nc2cc(C(C)(C)SC)nn2-c2cccc(O)c2)c(Cl)c1=O` [Example 276, 1-[2-({[3-chloro-1-(2-methoxybenzyl)-6-methyl-2-oxo-1,2-dihydropyridin-4-yl]oxy}methyl)benzyl]-3-{1-(3-hydroxyphenyl)-3-[1-methyl-1-(methylthio)ethyl]-1H-pyrazol-5-yl}ure] to `CSc1ccccc1Cn1c(C)cc(OCc2ccccc2CNC(=O)Nc2cc(C(C)(C)C)nn2-c2cccc(O)c2)c(C)c1=O` [Example 278, 1-[3-tert-butyl-1-(3-hydroxyphenyl)-1H-pyrazol-5-yl]-3-{2-[({3,6-dimethyl-1-[2-(methylthio)benzyl]-2-oxo-1,2-dihydropyridin-4-yl}oxy)methyl]benzyl}urea], the IC50 falls from 0.0205 µM to 0.0132 µM (1.6-fold).

`CNC(=O)c1ccc(C)c(-n2c(C)cc(OCc3ccc(F)cc3CNC(=O)Nc3cc(C(C)(C)C)nn3-c3ccc(C)cc3)c(Br)c2=O)c1` [Example 279, 3-{3-bromo-4-[(2-{[({[3-tert-butyl-1-(4-methylphenyl)-1H-pyrazol-5-yl]amino}carbonyl)-amino]methyl}-4-fluorobenzyl)oxy]-6-methyl-2-oxopyridin-1(2H)-yl}-N,4-dimethylbenzamide] showed an IC50 of 0.00367 µM.
